Where a SMILES comes first, the peptide text is derived from it. Bridges are numbered along the chain shown (N, C = ends). [ ]: non-standard residue; d: D form. Dap = NC[C@H](N)C(=O)O
Key:
Substance-P receptor [1] = biological target: T1, Substance-P receptor (Homo sapiens, UniProt P25103); experiment: Inhibition by the compound against [125I]BH-SP radioligand binding to neurokinin-1 (NK-1) receptor in human IM-9 cells at 10 uM concentration; type: cell-based
[2] = biological target: T2, Substance-K receptor (Mesocricetus auratus) (UniProt P51144); experiment: Inhibition by the compound against [125I]NKA binding to neurokinin-2 (NK-2) receptor in hamster urinary bladder at 10 uM concentration
T2 sequence (whole entry): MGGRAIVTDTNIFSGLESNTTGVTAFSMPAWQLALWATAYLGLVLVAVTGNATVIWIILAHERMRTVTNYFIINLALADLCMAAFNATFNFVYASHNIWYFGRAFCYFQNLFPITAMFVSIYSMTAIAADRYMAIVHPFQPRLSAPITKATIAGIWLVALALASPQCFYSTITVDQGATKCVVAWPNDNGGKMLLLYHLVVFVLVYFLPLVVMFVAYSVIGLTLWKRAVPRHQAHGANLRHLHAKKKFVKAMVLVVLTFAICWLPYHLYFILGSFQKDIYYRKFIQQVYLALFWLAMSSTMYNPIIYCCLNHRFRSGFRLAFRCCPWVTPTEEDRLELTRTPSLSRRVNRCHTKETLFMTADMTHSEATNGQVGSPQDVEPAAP

Neuromedin-K receptor [3] = biological target: T3, Neuromedin-K receptor (Homo sapiens, UniProt P29371); experiment: Tested for binding affinity of compound against [125I][MePhe]-NKB binding to Tachykinin receptor 3 in stably expressed CHO cells; type: cell-based
T3 sequence (P29371 whole entry): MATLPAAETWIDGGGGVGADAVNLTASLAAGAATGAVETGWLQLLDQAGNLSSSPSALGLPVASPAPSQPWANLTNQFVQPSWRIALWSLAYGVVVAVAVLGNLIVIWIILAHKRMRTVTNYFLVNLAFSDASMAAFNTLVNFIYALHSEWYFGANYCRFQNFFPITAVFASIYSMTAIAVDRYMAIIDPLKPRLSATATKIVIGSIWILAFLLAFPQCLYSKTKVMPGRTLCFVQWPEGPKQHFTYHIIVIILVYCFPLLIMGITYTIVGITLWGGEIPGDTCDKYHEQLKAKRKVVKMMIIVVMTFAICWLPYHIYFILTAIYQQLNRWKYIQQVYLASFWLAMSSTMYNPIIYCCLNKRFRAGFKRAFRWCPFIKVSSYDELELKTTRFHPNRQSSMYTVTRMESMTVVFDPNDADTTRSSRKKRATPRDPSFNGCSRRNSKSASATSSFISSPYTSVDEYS

Substance-K receptor = biological target: T4, Substance-K receptor (Mesocricetus auratus, UniProt P51144); experiment: Tested for binding affinity of compound against [125I]NKA binding to neurokinin-2 (NK-2) receptor in hamster urinary bladder
T4 sequence (P51144 whole entry): T2 sequence (whole entry)

Substance-P receptor [4] = biological target: T1, Substance-P receptor; experiment: Tested for binding affinity against [125I]BH-SP binding to neurokinin-1 (NK-1) receptor in human IM-9 cells; type: cell-based
Neuromedin-K receptor [5] = biological target: T3, Neuromedin-K receptor; experiment: Tested for binding affinity of compound against [125I][MePhe]-NKB binding to human Tachykinin receptor 3 in stably expressed CHO cells; Inactive; type: cell-based
[6] = biological target: T5, Neuromedin-K receptor (Homo sapiens) (UniProt P29371); experiment: Inhibition by the compound against [125I]-[MePhe]-NKB binding to human Tachykinin receptor 3 in stably expressed CHO cells at 10 uM concentration; type: cell-based
T5 sequence (whole entry): T3 sequence (P29371 whole entry)

T1 sequence (P25103 whole entry): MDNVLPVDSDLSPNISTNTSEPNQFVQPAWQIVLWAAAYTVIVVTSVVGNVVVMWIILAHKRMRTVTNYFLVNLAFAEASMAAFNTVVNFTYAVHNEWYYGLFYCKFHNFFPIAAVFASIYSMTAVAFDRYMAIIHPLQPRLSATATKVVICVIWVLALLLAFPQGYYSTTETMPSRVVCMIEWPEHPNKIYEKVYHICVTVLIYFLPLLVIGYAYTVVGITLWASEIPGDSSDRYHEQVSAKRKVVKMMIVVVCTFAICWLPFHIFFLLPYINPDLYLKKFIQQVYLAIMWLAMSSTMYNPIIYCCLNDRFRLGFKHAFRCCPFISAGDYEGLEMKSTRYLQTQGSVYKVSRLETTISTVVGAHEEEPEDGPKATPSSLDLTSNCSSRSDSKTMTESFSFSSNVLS

`O=C(NCc1cn(C(=O)OCc2ccccc2)c2ccccc12)N1C2CCC(C2)C1Cc1ccccc1` (stereo unspecified) was tested, and the inhibition (Substance-P receptor [1]) was 55%, the inhibition [2] was 18% and the IC50 (Neuromedin-K receptor [3]) was 10 µM.

`CSCC[C@@H]1NC(=O)[C@H](CC(C)C)NC(=O)[C@@H]2CNC(=O)C[C@H](NC1=O)C(=O)N[C@@H](Cc1c[nH]c3ccccc13)C(=O)N[C@@H](Cc1ccccc1)C(=O)N2` (cyclo(DWF[Dap]LM); lactam 1-4) was tested, and the IC50 (Substance-K receptor) was 79 pM, the IC50 (Substance-P receptor [4]) was 0.8 µM and the IC50 (Neuromedin-K receptor [5]) was “Not Active”.

Work on `O=C(Cc1c[nH]c2ccccc12)N1CCC(Cc2ccccc2)C1` (stereo unspecified) yielded an IC50 (Substance-P receptor [4]) of 3.7 µM and an inhibition [2] of 14%.

`O=C(NCc1c[nH]c2ccccc12)N1C2CCC(C2)C1Cc1ccccc1` (stereo unspecified) showed an IC50 (Substance-P receptor [4]) of 6.7 µM, an inhibition [2] of 31% and an inhibition [6] of 35%.
